Assay [1] relates to IL-23-stimulated STAT-dependent luciferase reporter in Kit225 T cells. Description: Kit225 T cell assay, IL-23 stimulated STAT-dependent luciferase reporter. The format is cell-based, human. The conditions noted are these: Kit225 T cells, 20 ng/mL human recombinant IL-23, 5-6 hours, luciferase; read-out: IL23 (Kit225 T Cell Inhibition Data). Here is the method: (§1) Kit225 T cells with a stably-integrated STAT-dependent luciferase reporter were plated in RPMI (Gibco) containing 10% heat-inactivated FBS (Gibco) and 100 U/mL PenStrep (Gibco). The cells were then stimulated with either 20 ng/mL human recombinant IL-23 or 200 U/mL human recombinant IFNα (PBL InterferonSource) for 5-6 hours. Luciferase expression was measured using the STEADY-GLO® Luciferase Assay System (Promega) according to the manufacturer's instructions.
A general note: Reporter assays use an easily measured gene product as a stand-in for the process of interest.

Assay [2] deals with IFNα-stimulated STAT-dependent luciferase reporter in Kit225 T cells. Description: Kit225 T cell assay, IFNα stimulated STAT-dependent luciferase reporter. The format is cell-based, human. The conditions noted are these: Kit225 T cells, 200 U/mL human recombinant IFNα, 5-6 hours, luciferase; read-out: IFNα (Kit225 T Cell Inhibition Data). As for the experimental part:
as §1

Consider `CNC(=O)c1cnc(Nc2ccc(F)cn2)cc1Nc1ccccc1S(C)(=O)=O` [Example 1], for which the figures for the IC50 in assay [1] and in assay [2] were 98.5 nM and 70 nM, respectively.
Taken in the same sequence, the figures for `CNC(=O)c1cnc(Nc2cc(-c3ccccc3)ccn2)cc1Nc1ccccc1C(N)=O` [Example 75] were 2030 nM and 1730 nM.
Turning to `CNC(=O)c1cnc(Nc2cc(C#N)ccn2)cc1Nc1ccc(F)cc1S(C)(=O)=O` [Example 34], the values for the IC50 in assay [1] and in assay [2] were 114 nM and 160 nM, respectively.
Taken in the same sequence, the figures for `CNC(=O)c1cnc(Nc2ccc(N3CCC(C)(O)CC3)cn2)cc1Nc1ccccc1S(C)(=O)=O` [Example 436] were 240 nM and 120 nM.
Taken in the same sequence, the figures for `CCOc1cc(F)ccc1Nc1cc(Nc2ccc(N3CCOCC3)cn2)ncc1C(=O)NC` [Example 232] were 3040 nM and 2090 nM.
For `CNC(=O)c1cnc(Nc2cc(C(C)(C)C)ccn2)cc1Nc1ccccc1S(C)(=O)=O` [Example 18], in that order: 1120 nM and 400 nM.
Take `CNC(=O)c1cnc(Nc2ccc(C(F)(F)F)cn2)cc1Nc1cc(F)cc(F)c1OC` [Example 135]: the figures for the IC50 in assay [1] and in assay [2] were 3420 nM and 1530 nM, respectively.
For `CNC(=O)c1cnc(Nc2ccc(F)cn2)cc1Nc1ccc(C(=O)N2CCOCC2)cc1S(C)(=O)=O` [Example 305], in that order: 2650 nM and 3110 nM.
As to `CNC(=O)c1cnc(Nc2cc(C#N)ccn2)cc1Nc1ccccc1NS(C)(=O)=O` [Example 281], the IC50 in assay [1] and in assay [2] was 140 nM each time.
As for `CNC(=O)c1cnc(Nc2ccc(C(F)(F)F)cn2)cc1NC1CCCC1C(N)=O` (stereo not drawn) [Example 291], the IC50 in assay [1] came out at 3730 nM; in assay [2], 3570 nM.
Consider `[2H]C([2H])([2H])NC(=O)c1cnc(Nc2ccccn2)cc1Nc1cccc(-c2cnn(C)c2)c1OC` [Example 398], for which the IC50 in assay [1] and in assay [2] was 20 nM each time.
Regarding `CNC(=O)c1cnc(Nc2ccc(C#N)cn2)cc1Nc1ccc(F)cc1OCF` [Example 162], the IC50 stood at 215 nM in assay [1] and 460 nM in assay [2].
Regarding `CNC(=O)c1cnc(Nc2ccc3ccccc3n2)cc1Nc1ccccc1C(C)(C)O` [Example 180], the IC50 worked out at 5090 nM in assay [1] and 2580 nM in assay [2].
Consider `CNC(=O)c1cnc(Nc2ccc(C#N)c(C)n2)cc1Nc1ccccc1S(C)(=O)=O` [Example 440], for which the IC50 was 250 nM in assay [1] and 260 nM in assay [2].
For `CNC(=O)c1cnc(Nc2cc(-n3ccccc3=O)ccn2)cc1Nc1ccc(F)cc1OC` [Example 168], in that order: 1420 nM and 1220 nM.
For `CNC(=O)c1cnc(Nc2cc(C#N)ccn2)cc1Nc1ccc(Cl)cc1OC` [Example 121], in that order: 244 nM and 150 nM.
Taken in the same sequence, the figures for `CNC(=O)c1cnc(Nc2cc(C)c(C#N)c(C)n2)cc1Nc1cc(F)cc(F)c1OC` [Example 140] were 281 nM and 120 nM.
Turning to `CNC(=O)c1cnc(Nc2cc(C)c(F)cn2)cc1Nc1cccc(C(=O)NCCCO)c1OC` [Example 348], the IC50 worked out at 430 nM in assay [1] and 180 nM in assay [2].
For `CNC(=O)c1cnc(Nc2cccc(OC)n2)cc1Nc1ccccc1S(C)(=O)=O` [Example 24], in that order: 35.2 nM and 40 nM.
As for `CNC(=O)c1ccc(Nc2cc(Nc3ccc(F)cn3)ncc2C(=O)NC)c(S(C)(=O)=O)c1` [Example 304], the figures for the IC50 in assay [1] and in assay [2] were 1240 nM and 570 nM, respectively.
For `CNC(=O)c1cnc(Nc2cc(C)nc(C)n2)cc1Nc1cccc(-c2nc(C)n(C)n2)c1OC` [Example 366], in that order: 20 nM and 9.22 nM.
Taken in the same sequence, the figures for `CNC(=O)c1cnc(Nc2ccc(F)cn2)cc1Nc1ccc(F)c(F)c1OC` [Example 96] were 257 nM and 210 nM.
Taken in the same sequence, the figures for `CNC(=O)c1cnc(Nc2ccc(OC)cn2)cc1Nc1cc(F)cc(F)c1OC` [Example 133] were 179 nM and 70 nM.
Regarding `CNC(=O)c1cnc(Nc2cc(F)ccn2)cc1Nc1ccc(F)cc1S(C)(=O)=O` [Example 51], the IC50 came to 270 nM in assay [1] and 200 nM in assay [2].
For the compound `CNC(=O)c1cnc(Nc2cnccn2)cc1Nc1ccccc1C(N)=O` [Example 178], the IC50 in assay [1] turned out to be 1630 nM; in assay [2], 1880 nM.
Regarding `CNC(=O)c1cnc(Nc2ccc(C)nn2)cc1Nc1ccccc1S(C)(=O)=O` [Example 414], the figures for the IC50 in assay [1] and in assay [2] were 650 nM and 280 nM, respectively.
Taken in the same sequence, the figures for `CNC(=O)c1cnc(Nc2cccc(OC)n2)cc1Nc1cc(F)cc(F)c1OC` [Example 130] were 119 nM and 50 nM.
Taken in the same sequence, the figures for `CNC(=O)c1cnc(Nc2cc(C)c(C)nn2)cc1Nc1ccccc1S(C)(=O)=O` [Example 415] were 320 nM and 210 nM.
Taken in the same sequence, the figures for `CNC(=O)c1cnc(Nc2cc(C)c(F)cn2)cc1Nc1ccc(C(=O)N2CCCC2)cc1S(C)(=O)=O` [Example 411] were 370 nM and 210 nM.
Turning to `CNC(=O)c1cnc(Nc2cc(C)c(F)cn2)cc1Nc1cccc(C(=O)NCCN2CCOCC2)c1OC` [Example 322], the figures for the IC50 in assay [1] and in assay [2] were 70 nM and 30 nM, respectively.
Taken in the same sequence, the figures for `CNC(=O)c1cnc(Nc2ccc(C#N)c(C)n2)cc1Nc1cc(F)cc(F)c1OC` [Example 139] were 367 nM and 180 nM.
For `CNC(=O)c1cnc(Nc2cccc(C)n2)cc1Nc1cc(F)cc(F)c1OC` [Example 132], in that order: 187 nM and 120 nM.
Taken in the same sequence, the figures for `CNC(=O)c1cnc(Nc2cc(-n3ccccc3=O)ccn2)cc1Nc1cc(F)cc(F)c1OC` [Example 167] were 510 nM and 310 nM.
As to `CNC(=O)c1cnc(Nc2ccn(-c3ccc(Cl)cc3)n2)cc1Nc1ccccc1S(C)(=O)=O` [Example 446], the IC50 in assay [1] turned out to be 150 nM; in assay [2], 180 nM.
Taken in the same sequence, the figures for `CNC(=O)c1cnc(Nc2ccc(F)cn2)cc1Nc1ccc(C(N)=O)cc1S(C)(=O)=O` [Example 303] were 2340 nM and 2650 nM.
For `CNC(=O)c1cnc(Nc2cc(C#N)ccn2)cc1Nc1cnccc1OC` [Example 179], in that order: 2730 nM and 3250 nM.
Taken in the same sequence, the figures for `CNC(=O)c1cnc(Nc2cc(C#N)ccn2)cc1Nc1cccc(F)c1S(C)(=O)=O` [Example 48] were 1610 nM and 960 nM.
For the compound `CNC(=O)c1cnc(Nc2cc3ccccc3cn2)cc1Nc1cc(F)cc(F)c1OC` [Example 136], the IC50 was 747 nM in assay [1] and 390 nM in assay [2].
Taken in the same sequence, the figures for `CNC(=O)c1cnc(Nc2cccc(C)n2)cc1Nc1ccccc1S(C)(=O)=O` [Example 21] were 50.9 nM and 30 nM.
Taken in the same sequence, the figures for `CNC(=O)c1cnc(Nc2ccc(F)cn2)cc1Nc1ccccc1SC(F)(F)F` [Example 210] were 1680 nM and 860 nM.
For `CNC(=O)c1cnc(Nc2ccc(F)cn2)cc1Nc1ccc(C(=O)N(C)C)cc1S(C)(=O)=O` [Example 306], in that order: 2530 nM and 560 nM.
Turning to `CNC(=O)c1cnc(Nc2ccc(N3CCOCC3)cn2)cc1Nc1ccc(F)cc1OC` [Example 218], the IC50 turned out to be 802 nM in assay [1] and 260 nM in assay [2].

The values are drawn from patent publication US9315494B2, “Alkyl-amide-substituted pyridyl compounds useful as modulators of IL-12, IL-23 and/or IFNα responses” (Bristol-Myers Squibb Company, priority 2012, dated 2016).
